Legend:
HCV replicon 1b Y93H = assay: Cell-based HCV replicon assay, 1b Y93H; details: Hepatitis C virus, 72 h, read-out: Replicon EC50 1b Y93H
Protocol: (§1) To measure cell-based anti-HCV activity of selected compounds of the present invention, replicon cells were seeded at 5000 cells/well in 96-well collagen I-coated Nunc plates in the presence of the test compound. Various concentrations of test compound, typically in 10 serial 2-fold dilutions, were added to the assay mixture, with the starting concentration ranging from 250 μM to 1 μM. The final concentration of DMSO was 0.5%, fetal bovine serum was 5%, in the assay media. Cells were harvested on day 3 by the addition of 1× cell lysis buffer (Ambion cat #8721). The replicon RNA level was measured using real time PCR (Taqman assay). The amplicon was located in 5B. The PCR primers were: 5B.2F, ATGGACAGGCGCCCTGA (SEQ. ID. NO. 1); 5B.2R, […] (SEQ. ID. NO. 2); the probe sequence was FAM-labeled CACGCCATGCGCTGCGG (SEQ. ID. NO. 3). GAPDH RNA was used as endogenous control and was amplified in the same reaction as NS5B (multiplex PCR) using primers and VIC-labeled probe recommended by the manufacturer (PE Applied Biosystem). The real-time RT-PCR reactions were run on ABI PRISM 7900HT Sequence Detection System using the following program: 48° C. for 30 minutes, 95° C. for 10 minutes, 40 cycles of 95° C. for 15 sec, 60° C. for 1 minutes. The ΔCT values (CT5B-CTGAPDH) were plotted against the concentration of test compound and fitted to the sigmoid dose-response model using XLfit4 (MDL). […] Alternatively, to quantitate the absolute amount of replicon RNA, a standard curve was established by including serially diluted T7 transcripts of replicon RNA in the Taqman assay. All Taqman reagents were from PE Applied Biosystems. Such an assay procedure was described in detail in e.g. Malcolm et al., Antimicrobial Agents and Chemotherapy 50: 1013-1020 (2006).
(§2) HCV replicon assay data was calculated for selected compounds of the present invention using this method and is provided in the table below.

HCV replicon 2a WT = assay: Cell-based HCV replicon assay, 2a WT; details: Hepatitis C virus, 72 h; replicon cells, harvested day 3, replicon RNA by real time PCR (Taqman)
Protocol: as §1, §2

HCV replicon 1a Y93H = assay: Cell-based HCV replicon assay, 1a Y93H; details: Hepatitis C virus, 72 h, read-out: Replicon EC50 1a Y93H
Protocol: as §1, §2

HCV replicon 3a WT = assay: Cell-based HCV replicon assay, 3a WT; details: Hepatitis C virus, 72 h; replicon cells, harvested day 3, replicon RNA by real time PCR (Taqman)
Protocol: as §1, §2

HCV replicon 4a WT = assay: Cell-based HCV replicon assay, 4a WT; details: Hepatitis C virus, 72 h; replicon cells, harvested day 3, replicon RNA by real time PCR (Taqman)
Protocol: as §1, §2

HCV replicon 1a WT = assay: Cell-based HCV replicon assay, 1a WT; details: Hepatitis C virus, 72 h; replicon cells, harvested day 3, replicon RNA by real time PCR (Taqman)
Protocol: as §1, §2

HCV replicon 1b WT = assay: Cell-based HCV replicon assay, 1b WT; details: Hepatitis C virus, 72 h; replicon cells, harvested day 3, replicon RNA by real time PCR (Taqman)
Protocol: as §1, §2

HCV replicon 2b WT = assay: Cell-based HCV replicon assay, 2b WT; details: Hepatitis C virus, 72 h; replicon cells, harvested day 3, replicon RNA by real time PCR (Taqman)
Protocol: as §1, §2

Structure (SMILES)	EC50 (HCV replicon 1b Y93H) [nM]	EC50 (HCV replicon 2a WT) [nM]	EC50 (HCV replicon 1a Y93H) [nM]	EC50 (HCV replicon 3a WT) [nM]	EC50 (HCV replicon 4a WT) [nM]	EC50 (HCV replicon 1a WT) [nM]	EC50 (HCV replicon 1b WT) [nM]	EC50 (HCV replicon 2b WT) [nM]
COC(=O)N[C@H](C(=O)N1CCC[C@H]1c1ncc(-c2cc3c4c(c2)Oc2ccc(-c5cnc([C@@H]6CCCN6C(=O)[C@@H](NC(=O)OC)C(C)C)[nH]5)cc2N4CC3)[nH]1)C(C)C [Compound 6, Methyl [(2S)-1-{(2S)-2-[5-(4-{2-[(2S)-1-{(2S)-2-[(methoxycarbonyl)amino]-3-methylbutanoyl}pyrrolidin-2-yl]-1H-imidazol-5-yl}-1,2-dihydropyrrolo[3,2,1-kl]phenoxazin-9-yl)-1H-imidazol-2-yl]pyrrolidin-1-yl}-3-methyl-1-oxobutan-2-yl]carbamate]	0.303	0.011	43.5	0.22	0.22	0.037	0.005	18.9
COC(=O)N[C@H](C(=O)N1CCC[C@H]1c1ncc(-c2ccc3c(c2)-n2ccc4cc(-c5cnc([C@@H]6CCCN6C(=O)[C@@H](NC(=O)OC)C(C)C)[nH]5)cc(c42)O3)[nH]1)C(C)C [Compound 16]	9.1	0.104	50.9	9.61	1.31	0.1	0.009	9.07
COC(=O)N[C@H](C(=O)N1CCC[C@H]1c1ncc(-c2cc3c4c(c2)Oc2ccc(-c5cnc([C@@H]6CCCN6C(=O)[C@@H](NC(=O)OC)C(C)C)[nH]5)cc2N4CCO3)[nH]1)C(C)C [Compound 13, Methyl [(2S)-1-{(2S)-2-[5-(5-{2-[(2S)-1-{(2S)-2-[(methoxycarbonyl)amino]-3-methylbutanoyl}pyrrolidin-2-yl]-1H-imidazol-5-yl}-1,2-dihydro[1,4]oxazino[2,3,4-kl]phenoxazin-10-yl)-1H-imidazol-2-yl]pyrrolidin-1-yl}-3-methyl-1-oxobutan-2-yl]carbamate]	19	0.01	143	1.63	0.48	0.002	0.005	19.3
COC(=O)N[C@H](C(=O)N1CCC[C@H]1c1ncc(-c2ccc3c(c2)Oc2ccc(-c4cnc([C@@H]5CCCN5C(=O)[C@@H](NC(=O)OC)C(C)C)[nH]4)c4c2N3CC4)[nH]1)C(C)C [Compound 17]	19.6	0.007	19.5	0.067	0.026	0.006	0.001	19.6
COC(=O)N[C@H](C(=O)N1CCC[C@H]1c1ncc(-c2ccc3c(c2)Oc2ccc(-c4cnc([C@@H]5CCCN5C(=O)[C@@H](NC(=O)OC)C(C)C)[nH]4)c4occ-3c24)[nH]1)C(C)C [Compound 14, Methyl [(2S)-1-{(2S)-2-[5-(3-{2-[(2S)-1-{(2S)-2-[(methoxycarbonyl)amino]-3-methylbutanoyl}pyrrolidin-2-yl]-1H-imidazol-5-yl}furo[2,3,4-kl]xanthen-8-yl)-1H-imidazol-2-yl]pyrrolidin-1-yl}-3-methyl-1-oxobutan-2-yl]carbamate]	0.278	0.002	31.5	0.161	0.056	0.011	0.002	34.5
COC(=O)N[C@H](C(=O)N1CCC[C@H]1c1ncc(-c2ccc3c(c2)Oc2ccc(-c4cnc([C@@H]5CCCN5C(=O)[C@@H](NC(=O)OC)C(C)C)[nH]4)c4ccn-3c24)[nH]1)C(C)C [Compound 1, Methyl [(2S)-1-{(2S)-2-[5-(3-{2-[(2S)-1-{(2S)-2-[(methoxycarbonyl)amino]-3-methyl-butanoyl}pyrrolidin-2-yl]-1H-imidazol-5-yl}pyrrolo[3,2,1-kl]phenoxazin-8-yl)-1H-imidazol-2-yl]pyrrolidin-1-yl}-3-methyl-1-oxobutan-2-yl]carbamate]	0.56	0.004	41.7	0.323	0.044	0.0107	0.009	–

Source: patent US9504690B2, “Tetracyclic xanthene derivatives and methods of use thereof for the treatment of viral diseases” (Merck Sharp & Dohme Corp., priority 2011, dated 2016)
